# Measurements: patent publication US5242900A (priority 1991, dated 1993)
# Columns and labels:
# normal dog = type: in vivo
# Description: (§1) Nine dogs of initially normal body weight were studied in accordance with Institutional Guidelines for animal experiments. Exteriorized, indwelling catheters were placed for intra-portal insulin administration and peripheral venous blood sampling. All were studied initially as normals. Subsequently all were pancreatectomized; five were autografted and the remaining four were treated pharmacologically both with the modified insulins described above in Example 1 and the corresponding unmodified conventional extracted insulins. Small venous blood samples were drawn via the indwelling blood sampling catheter at 30-60 minute intervals for plasma glucose determination in the subcutaneous experiments and at -10,0,3,6,10,20,30,60 minutes in the intravenous experiments. […] All animals were conscious and ambulatory during the studies.
# (§2) Plasma glucose was determined using a glucose analyzer (Beckman Instruments, Fullerton, CA). IRI was assayed using porcine insulin standard and ^125 I porcine insulin tracer (Novo Research Institute, Gentofte, Denmark), antiserum and a dextran-coated charcoal separation technique (Albisser et al, Diabetes 35:97-100, 1986). In the studies using porcine phosphorylated insulin, the above assay was performed as for porcine insulin, but using equimolar standards of phosphorylated insulin. Parallel standard curves were obtained. […] All values were expressed as mean ±SEM unless otherwise indicated.
# pancreatectomized dogs = test: Subcutaneous studies in pancreatectomized (diabetic) dogs: plasma glucose; type: in vivo
# Description: as §1
# At the conclusion of experimental protocols, it was verified that all nine of the animals were diabetic by extirpating the grafts (from the transplant recipients) or withdrawing insulin therapy (from the pancreatectomized animals).
# as §2
# Subsequent to pancreatectomy the animals were studied repeatedly, now in the post-absorptive, hyperglycemic state of 14-20 mM, because the conventional insulin depot administered the previous day had become depleted.
substance,measurement,setting,value
phosphorylated insulin: porcine insulin chemically phosphorylated with POCl3/phosphoric acid in DMF; 3 or 5 negatively charged adducts; about 5-10% unmodified,first pass extraction by the liver compared with insulin,"normal dog; dog, in vivo",not extracted to the same extent
same,hypoglycemic effect,"normal dog; normal dog, intra-portal, 2-fold larger dose",without major hypoglycemic effect
same,drop in blood glucose,"normal dog; normal dog, intra-portal, at 15 minutes",0.2 mM
same,decrease in plasma glucose,"normal dog; normal dog, intra-portal, double dosage",about 0.5 mM
same,early hypoglycemia,"pancreatectomized dogs; dog, in vivo, sc",never occurred
same,lipo-genesis (fat-like deposits) in the areas of repeated subcutaneous injections,"pancreatectomized dogs; dog, in vivo, sc",palpable fat-like deposits
same,time euglycemia maintained,"pancreatectomized dogs; fasted pancreatectomized dog, starting 14-20 mM, subcutaneous, 30-150 nMol",2 to 6 h
same,glucose lowering effect at larger dose,"pancreatectomized dogs; pancreatectomized dog, subcutaneous, 4-fold larger doses",occurred more rapidly and lasted longer
same,plasma glucose lowered to,"pancreatectomized dogs; pancreatectomized dog, subcutaneous, approximately 4 nMol/kg",4.5 to 6.0 mM
same,plasma glucose with repeated injections,"pancreatectomized dogs; pancreatectomized dog, subcutaneous, smaller dosage repeated at 6-8h intervals",maintain plasma glucose in the range normal for postabsorptive dogs
same,body weight regained after loss following pancreatectomy,pancreatectomized dogs; pancreatectomized dogs,1 to 3 kg
